Experimental data: US11028090B2 (Dong Wha Pharm. Co., Ltd., priority 2017, dated 2021)
Read-outs that look alike come from different tables or passages of the source.

How the values were obtained:
[1] = tested on: acute myelogenous leukemia cells (MV-4-11 cells); assay: Cytotoxicity to acute myelogenous leukemia cells (MV-4-11 cells), CCK-8; details: Homo sapiens, MV4-11, 72 h
[2] = molecular target: BRD4 (BD1+BD2) bromodomain (Homo sapiens (Human), UniProt O60885); assay: BRD4 binding inhibition (AlphaScreen, GST-BRD4 vs tetraacetylated histone H4 peptide)
Summary of the method: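 AlphaScreen read after 30 min dark incubation at room temperature with glutathione acceptor/streptavidin donor beads (10 μg/ml each). The beads were added to compound plus 100 nM biotin-H4 (K5,8,12,16-acetyl) peptide and 100 nM GST-BRD4 BD1+BD2 in pH 7.4 HEPES/Tween/BSA/DTT buffer.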

[3] = read-out: IC50, cytotoxicity against acute myelogenous leukemia cells
[4] = read-out: MV-4-11 Cytotoxicity IC50
[5] = GST-BRD4 (BD1+BD2) / biotinylated acetyl-histone H4 (Lys5,8,12,16) peptide, read-out: IC50, BRD4 binding inhibition
[6] = GST-BRD4 (BD1+BD2) vs biotinylated acetyl-histone H4 peptide, AlphaScreen, read-out: BRD4 IC50

| SMILES | IC50 [2, 5] [nM] | IC50 [2, 6] [nM] | IC50 [1, 3] [nM] | IC50 [1, 4] [nM] |
| --- | --- | --- | --- | --- |
| CCC(C)OC(=O)NCCCCNc1nc2cc(OCCOC)ccc2n2c(C)nnc12 (centres unmarked) [Example 368, {4-[7-(2-methoxy-ethoxy)-1-methyl-[1,2,4]triazolo[4,3-a]quinoxaline-4-ylamino]-butyl}-carbamic acid-sec-butylester] | ≤ 10 | 10 | ≤ 200 | 140 |
| COc1cc(C)c2nc(NCCCCN)c3nnc(C)n3c2c1 [Example 159, N^1-(8-methoxy-1,6-dimethyl-[1,2,4]triazolo[4,3-a]quinoxaline-4-yl)-butane-1,4-diamine ditrifluoroacetic acid] | ≤ 50 | 24 | – | 530 |
| COc1cc2nc(NCCCCNC(=O)CC(C)C)c3nnc(C)n3c2cc1F [Example 574, N-[4-(8-fluoro-7-methoxy-1-methyl-[1,2,4]triazolo[4,3-a]quinoxaline-4-ylamino)-butyl]-3-methyl-butyramide] | ≤ 50 | 40 | ≤ 200 | 45 |
| COCCOc1ccc2c(c1)nc(NCCCCNC(=O)CCC(C)C)c1nnc(C)n12 [Example 383, 4-methyl-pentanoic acid{4-[7-(2-methoxy-ethoxy)-1-methyl-[1,2,4]triazolo[4,3-a]quinoxaline-4-ylamino]-butyl}-amide] | ≤ 10 | 3 | ≤ 200 | 73 |
| CCOc1cc2nc(NCCCCNC(=O)CC(C)C)c3nnc(C)n3c2cc1OCC [Example 177] | ≤ 50 | 50 | ≤ 200 | 110 |
| CCOC(=O)NCCCCNc1nc2cc(OC)c(OC)cc2n2c(C)nnc12 [Example 61, [4-(7,8-dimethoxy-1-methyl-[1,2,4]triazolo[4,3-a]quinoxaline-4-ylamino)-butyl]-carbamic acid ethylester] | – | 56 | – | 380 |
| COc1cc2nc(NCCCCNC(=O)C(C)C)c3nnc(C)n3c2cc1OC [Example 70, N-[4-(7,8-dimethoxy-1-methyl-[1,2,4]triazolo[4,3-a]quinoxaline-4-ylamino)-butyl]-isobutyramide] | ≤ 50 | – | – | 370 |
| CCC(C)CC(=O)NCCCCNc1nc2cc(OC)ccc2n2c(C(F)(F)F)nnc12 (centres unmarked) [Example 591, 3-methyl-pentanoic acid-[4-(7-methoxy-1-trifluoromethyl-[1,2,4]triazolo[4,3-a]quinoxaline-4-ylamino)-butyl]-amide] | ≤ 50 | 28 | – | 880 |
| Cc1nnc2c(NCCCCNC(=O)NC(C)C)nc3cc(-c4nc5ccccc5n4C)ccc3n12 [Example 238, 1-isopropyl-3-{4-[1-methyl-7-(1-methyl-1H-benzoimidazole-2-yl)-[1,2,4]triazolo[4,3-a]quinoxaline-4-ylamino]-butyl}-urea] | ≤ 50 | 15 | – | 650 |
| C/C=C/C(=O)NCCCCNc1nc2cc(OC)ccc2n2c(C)nnc12 [Example 283, butene-2-oic acid-[4-(7-methoxy-1-methyl-[1,2,4]triazolo[4,3-a]quinoxaline-4-ylamino)-butyl]-amide] | – | 51 | – | 176 |
| Cc1nnc2c(NCCCCNC(=O)CC(C)C)nc3cc(OCc4ccccc4)ccc3n12 [Example 346, N-[4-(7-benzyloxy-1-methyl-[1,2,4]triazolo[4,3-a]quinoxaline-4-ylamino)-butyl]-3-methyl-butyramide] | ≤ 50 | 22 | ≤ 200 | 79 |
| C#CCNc1cc2c(cc1OC)nc(NCCCCNC(=O)CC(C)C)c1nnc(C)n12 [Example 560] | ≤ 50 | 37 | ≤ 200 | 71 |

The next lines start with results.

| IC50 [2, 5] [nM] | IC50 [2, 6] [nM] | SMILES | IC50 [1, 3] [nM] | IC50 [1, 4] [nM] |
| --- | --- | --- | --- | --- |
| ≤ 10 | 9 | COc1ccc2c(c1)nc(NCCCCNC(=O)C=C(C)C)c1nnc(C)n12 [Example 284, 3-methyl-butene-2-oic acid-[4-(7-methoxy-1-methyl-[1,2,4]triazolo[4,3-a]quinoxaline-4-ylamino)-butyl]-amide] | ≤ 200 | 173 |
| ≤ 50 | 11 | COc1ccc2c(c1)nc(NCCCCC(=O)NC(C)C)c1nnc(C)n12 [Example 654, 5-(7-methoxy-1-methyl-[1,2,4]triazolo[4,3-a]quinoxaline-4-ylamino)-pentanoic acid isopropylamide] | – | 270 |
| ≤ 50 | 30 | Cc1nnc2c(NCCCCNC(=O)[C@@H](NC(=O)OC(C)(C)C)C(C)C)nc3cc(N4CCOCC4)ccc3n12 [Example 502, (S)-{2-methyl-1-[4-(1-methyl-7-morpholine-4-yl-[1,2,4]triazolo[4,3-a]quinoxaline-4-ylamino)-butylcarbamoyl]-propyl}-carbamic acid-tert-butylester] | – | 331 |
| ≤ 50 | 23 | Cc1nnc2c(NCCCCNC(=O)CC(C)C)nc3cc(O)ccc3n12 [Example 340, N-[4-(7-hydroxy-1-methyl-[1,2,4]triazolo[4,3-a]quinoxaline-4-ylamino)-butyl]-3-methyl-butyramide] | ≤ 200 | 54 |
| ≤ 50 | 14 | Cc1nnc2c(NCCCCNC(=O)OC(C)C)nc3cc(-n4ccnc4)ccc3n12 [Example 494, [4-(7-imidazole-1-yl-1-methyl-[1,2,4]triazolo[4,3-a]quinoxaline-4-ylamino)-butyl]-carbamic acid isopropylester] | ≤ 200 | 110 |
| ≤ 50 | 19 | CCC(C)C(=O)NCCCCNc1nc2cc(OC(C)C)ccc2n2c(C)nnc12 (centres unmarked) [Example 450, N-[4-(7-isopropoxy-1-methyl-[1,2,4]triazolo[4,3-a]quinoxaline-4-ylamino)-butyl]-2-methyl-butyramide] | – | 270 |
| ≤ 50 | 25 | Cc1nnc2c(NCCCCNC(=O)CC(C)(C)C)nc3cc(OC(F)(F)F)ccc3n12 [Example 272, 3,3-dimethyl-N-[4-(1-methyl-7-trifluoromethoxy-[1,2,4]triazolo[4,3-a]quinoxaline-4-ylamino)-butyl]-butyramide] | – | 810 |
| ≤ 50 | 23 | CCC(CC)C(=O)NCCCCNc1nc2cc(OC)ccc2n2c(C)nnc12 [Example 290, 2-ethyl-N-[4-(7-methoxy-1-methyl-[1,2,4]triazolo[4,3-a]quinoxaline-4-ylamino)-butyl]-butyramide] | ≤ 200 | 150 |
| ≤ 50 | 29 | COc1ccc2c(c1)nc(NCCCCNC(=O)NC(C)C)c1nnc(C)n12 [Example 330, 1-isopropyl-3-[4-(7-methoxy-1-methyl-[1,2,4]triazolo[4,3-a]quinoxaline-4-ylamino)-butyl]-urea] | ≤ 200 | 140 |
| ≤ 10 | 5 | Cc1noc(C)c1-c1ccc2c(c1)nc(NCCCCNC(=O)CC(C)C)c1nnc(C)n12 [Example 585, N-{4-[7-(3,5-dimethyl-isoxazol-4-yl)-1-methyl-[1,2,4]triazolo[4,3-a]quinoxaline-4-ylamino]-butyl}-3-methyl-butyramide] | – | 280 |
